Assay results published in PMC8125995, “In Vitro Antiplasmodial and Cytotoxic Activities of Compounds from the Roots of Eriosema montanum Baker f. (Fabaceae)” (Molecules, 2021).
≈ marks a conversion by molar mass, not a printed value. Read-outs that look alike come from different tables or passages of the source.

Legend:
[1] = system: 3D7 strain of Plasmodium falciparum; test: In vitro antiplasmodial activity (SYBR Green, 48 h); assay type: cell-based; conditions: read-out: Antiplasmodial Activity IC50
Description: Continuous in vitro cultures of asexual erythrocyte stages of P. falciparum, chloroquine-sensitive 3D7 strain was maintained according to the procedure of Trager and Jensen. Strains were obtained from ATCC, Bei Resources. The host cells were human red blood cells (A+). […] Compound stock solutions were prepared in DMSO at 10 mg/mL (for an extract) and 1 mg/mL (for an isolated compound). Then, the solution is directly diluted in the medium; each test sample was applied in a series of eight 2-fold dilutions in a 96-well plate, starting with 100 µg/mL and 10 µg/mL for the crude extract and purified compounds, respectively, and tested in triplicate. The effect of compounds on the parasite growth was estimated, after 48 h incubation, by using the SYBR Green, a DNA intercalating compound. Artemisinin (Sigma-Aldrich, Machelen, Belgium), at an initial concentration of 100 ng/mL, was used as positive control in all experiments. The half-maximal inhibitory concentration (IC50) values were calculated from graphs.

[2] = system: different cell lines; parameters: method as in doi:10.1016/j.phytol.2020.10.005; conditions: cited from earlier work
[3] = Cytotoxicity, Cell Titer-Glo Luminescent Cell Viability Assay; assay type: cell-based; conditions: human
Description: (§1) The cytotoxic effect of the crude extract and compounds thereof on THP-1 human acute leukemia cell line was carried using the Cell Titer-Glo Luminescent Cell Viability Assay (Promega). […] Cells were then incubated in the presence or absence of tested compounds for 3 days at 37 °C in a humidified 5% CO2 atmosphere in a 96-wells plate at a cell density of two thousand cells/well. The cell viability was then evaluated using Cell Titer-Glo Luminescent Cell Viability Assay (Promega) according to the manufacturer’s instructions.

[4] = system: THP-1 human acute leukemia cell line; test: as above; assay type: cell-based; conditions: 3 days
Description: as §1

[5] = parameters: method as in PMID 21872416; conditions: antiplasmodial activity; read-out: reported IC50; cited from earlier work
[6] = chloroquine-sensitive 3D7 strain, 48 h incubation, SYBR Green, mean ± S.D. of two, three or four independent experiments

Compound	IC50 [1, 6] [µg/mL]	CC50 at 3 days ([3]; Cytotoxic Activity CC50) [µg/mL]	further results
O=C(O)C[C@](O)(Cc1ccc(O)cc1)C(=O)O [Compound 1, eucomic acid]	0.057 ± 0.031 (≈ 0.237 µM)	375 ± 97.3 (≈ 1560 µM)	CC50 [2]: > 100 µM
COc1cc(O)cc2occ(-c3ccc(O)cc3)c(=O)c12 [Compound 5, isoprunetin]	0.042 (≈ 0.148 µM)	221 ± 33.3 (≈ 778 µM)	
O=c1c(-c2ccc(O)c(O)c2)coc2cc(O)cc(O)c12 [Compound 6, Isoluteolin]	0.121 ± 0.048 (≈ 0.423 µM)	243 ± 73 (≈ 848 µM)	
O=c1c(-c2ccc(O)cc2)coc2cc(O)cc(O)c12 [Compound 7, genistein]			IC50 ([1]; 3D7, 48 h): 7.74 ± 0.802 µg/mL (≈ 28.6 µM); CC50 at 3 days ([3]; THP-1 cells, 3 days incubation, read-out: Cytotoxic Activity CC50): 116 µg/mL (≈ 430 µM)
O=C(O)CC(O)C(=O)O (stereo not shown) [Malic acid, malic acid]			IC50 [5]: > 10 µM

The next lines start with results.

IC50 [1, 6] [µg/mL]	Compound	CC50 at 3 days ([3]; Cytotoxic Activity CC50) [µg/mL]	further results
0.0067 ± 0.003 (≈ 0.0237 µM)	C[C@@H]1CC[C@H]2[C@@H](C)C(=O)O[C@@H]3O[C@@]4(C)CC[C@@H]1[C@]32OO4 [Artemisinin, reference compound]		
0.113 ± 0.074 (≈ 0.253 µM)	COc1cc(OC2OC(CO)C(O)C(O)C2O)cc2occ(-c3ccc(O)cc3)c(=O)c12 (stereo not shown) [Compound 2, 7-O-glucopyranosyl-isoprunetin]	322 ± 20.6 (≈ 721 µM)	
7.87 ± 1.72 (≈ 18.2 µM)	O=c1c(-c2ccc(O)cc2)coc2cc(O[C@@H]3O[C@H](CO)[C@@H](O)[C@H](O)[C@H]3O)cc(O)c12 [Compound 3, genistin]	169 (≈ 390 µM)	Cytotoxic Activity CC50 [4]: 196.3 ± 44.5 µg/mL
> 10	O=C(O)CC(=O)OC[C@H]1O[C@@H](Oc2cc(O)c3c(=O)c(-c4ccc(O)cc4)coc3c2)[C@H](O)[C@@H](O)[C@@H]1O [Compound 4, malonyl genistin]	182 (≈ 351 µM)	Cytotoxic Activity CC50 [4]: 223.3 ± 58.6 µg/mL
